Results on three molecules are retold here after patent US6054598A, “Synthesis of 2-alkoxyestradiols” (Pharm-Eco Laboratories, Inc., priority 1998, dated 2000).

Molecules are shown by their SMILES. Like-named read-outs stand apart in the source and are kept apart here.

The test system of data set [1] is OVCAR ovarian cancer cells. Nature of the data set: NCI anticancer screen, cytotoxicity, OVCAR ovarian cancer cells. In kind it is cell-based. As to conditions: Homo sapiens, read-out: cytotoxicity GI50, Ovarian OVCAR. An excerpt:
(§1) The effects of the analogs on cancer cell growth was investigated in the National Cancer Institute (NCI) Developmental Therapeutics Program's in vitro panel of approximately 55 cell lines (Grever et al., Seminars in Oncology 19:622 (1992), Alley et al., Cancer Research 48:589 (1988) and Montes et al., J. National Cancer Institute 83:757 (1991)).

Data set [2] deals with tubulin. Nature of the data set: Inhibition of polymerization of purified tubulin. In kind it is biochemical, bovine. As to conditions: for IC50: extent of polymerization after 20 min incubation, 26° C., 350 nm, read-out: Inhibn of Tubulin Polymn IC50. On the procedure: Electrophoretically homogeneous tubulin was purified from bovine brain as described previously (Hamel et al., Biochemistry 23:4173-4184 (1984)). Determination of IC50 values for the polymerization of purified tubulin was performed as described in D'Amato et al. Proc. Natl. Acad. Sci. U.S.A. 91:3964-3968 (1994). Tubulin was preincubated at 26° C. with varying compound concentrations, reaction mixtures were chilled on ice, GTP (required for the polymerization reaction) was added, and polymerization was followed at 26° C. by turbidimetry at 350 nm in Gilford recording spectrophotometers equipped with electronic temperature controllers. Four instruments were used, and two control reaction mixtures were present in each experiment. The extent of polymerization after a 20 min incubation was determined (the values for the two controls were usually within 5% of each other). IC50 values were determined graphically. […] Inhibition of colchicine binding to tubulin was performed as described previously (D. Amato et al., Proc. Natl. Acad. Sci. U.S.A. 91:3964-3968 (1994)). […] Incubation was for 30 min at 37° C.

Data set [3] has as its system HCT-116 colon cancer cells. Nature of the data set: NCI anticancer screen, cytotoxicity, HCT-116 colon cancer cells. As to conditions: Homo sapiens. The format is cell-based.
Source text: as §1

In data set [4] the test system is human cancer cell lines (approximately 55). The experiment in a line: NCI anticancer screen, in vitro panel of approximately 55 cell lines. As to conditions: for GI50: read-out: cytotoxicity MGM (mean graph midpoint for all human cancer cell lines tested). In kind it is cell-based.
Source text: as §1

The test system of data set [5] is UACC-62 melanoma cells. The experiment in a line: NCI anticancer screen, cytotoxicity, UACC-62 melanoma cells. The format is cell-based. As to conditions: Homo sapiens.
Source text: as §1

Data set [6] relates to MDA-MB-435 breast cancer cells. The experiment in a line: NCI anticancer screen, cytotoxicity, MDA-MB-435 breast cancer cells. The format is cell-based. As to conditions: Homo sapiens.
Source text: as §1

Data set [7] concerns HOP-62 non-small-cell lung cancer cells. Nature of the data set: NCI anticancer screen, cytotoxicity, HOP-62 non-small-cell lung cancer cells. The format is cell-based. As to conditions: Homo sapiens.
Source text: as §1

Data set [8] relates to DU-145 prostate cancer cells. Nature of the data set: NCI anticancer screen, cytotoxicity, DU-145 prostate cancer cells. The format is cell-based. As to conditions: Homo sapiens.
Source text: as §1

Data set [9] deals with SN12--C renal cancer cells. The experiment in a line: NCI anticancer screen, cytotoxicity, SN12-C renal cancer cells. As to conditions: Homo sapiens, SN12C, read-out: cytotoxicity GI50, Renal SN12-C. In kind it is cell-based.
Source text: as §1

Data set [10] has as its system SF-539 central nervous system (CNS) cancer cells. The experiment in a line: NCI anticancer screen, cytotoxicity, SF-539 central nervous system (CNS) cancer cells. In kind it is cell-based. As to conditions: Homo sapiens.
Source text: as §1

Data set [11] deals with solid tumors. As to conditions: in mice; Fotsis et al., Nature 368:237 (1994); cited from earlier work.
Where [12] appears, read: HCT-116, read-out: cytotoxicity GI50, Colon HCT-116.
The mark [13] stands for this setting: UACC-62, read-out: cytotoxicity GI50, Melanoma UACC-62.
Where [14] appears, read: MDA-MB-435, read-out: cytotoxicity GI50, Breast MDA-MB-435.
The mark [15] stands for this setting: HOP-62, read-out: cytotoxicity GI50, Lung HOP-62.
The mark [16] stands for this setting: DU-145, read-out: cytotoxicity GI50, Prostate DU-145.
[17] abbreviates: SF-539, read-out: cytotoxicity GI50, CNS SF-539.

What is called IC50 is the concentration needed to halve the response being measured. For the molecule `C[C@]12CC[C@@H]3c4cc(OCC(F)(F)F)c(O)cc4CC[C@H]3[C@@H]1CC[C@@H]2O` [Compound 9, 2-(2',2',2'-Trifluoroethoxy)estra-1,3,5(10)-Trien-3,17β-Diol], the GI50 was 460 nM in data set [1]; 3220 nM in data set [3] (setting [12]); 2630 nM in data set [4] (Homo sapiens); 2320 nM in [5] (setting [13]); 280 nM in data set [6] (setting [14]); 11600 nM in data set [7] (setting [15]). In addition, the GI50 in data set [8] (setting [16]) was 7050 nM; in [9] it was 4460 nM; in data set [10] (setting [17]), 1380 nM. Also, the IC50 in data set [2] worked out at 1700 nM.
Turning to `CCOc1cc2c(cc1O)CC[C@@H]1[C@@H]2CC[C@]2(C)[C@@H](O)CC[C@@H]12` [Compound 10, 2-Ethoxyestra-1,3,5(10)-trien03,17β-diol], the GI50 was 16 nM in [1]; 26 nM in [3] (setting [12]); 76 nM in data set [4] (Homo sapiens); 16 nM in [5] (setting [13]); under 10 nM in [6] (setting [14]); 18 nM in data set [7] (setting [15]). Further, the results for the GI50 in data set [8] (setting [16]), in data set [9] and in data set [10] (setting [17]) were 65 nM, 39 nM and 14 nM, respectively. The “activity on tubulin polymerization relative to 2-methoxy estradiol (1)” value in data set [2] (compared with 2-methoxy estradiol (1)) is “over three times more active”. In addition, the IC50 in [2] amounted to 910 ± 500 nM. Moreover, the “activity against all the cell lines listed in Table 1 relative to 2-methoxy estradiol (1)” value in data set [4] (all the cell lines listed in Table 1, compared with 2-methoxy estradiol (1)) is recorded as “more active”.
Turning to `COc1cc2c(cc1O)CC[C@@H]1[C@@H]2CC[C@]2(C)[C@@H](O)CC[C@@H]12` [Compound 1, 2-methoxy estradiol, reference compound], the GI50 in [1] (OVCAR, concentration corresponding to 50% growth inhibition) came out at 210 nM; in data set [3] (HCT-116, concentration corresponding to 50% growth inhibition, read-out: cytotoxicity GI50, Colon HCT-116) it was 470 nM; in [4] (approximately 55 human cancer cell lines, GI50), 1300 nM; in data set [5] (UACC-62, concentration corresponding to 50% growth inhibition, read-out: cytotoxicity GI50, Melanoma UACC-62), 360 nM; in [6] (MDA-MB-435, concentration corresponding to 50% growth inhibition, read-out: cytotoxicity GI50, Breast MDA-MB-435), 80 nM; in data set [7] (HOP-62, concentration corresponding to 50% growth inhibition, read-out: cytotoxicity GI50, Lung HOP-62), 700 nM. In addition, the GI50 in data set [8] (DU-145, concentration corresponding to 50% growth inhibition, read-out: cytotoxicity GI50, Prostate DU-145) came to 1800 nM; in data set [9] (SN12-C, concentration corresponding to 50% growth inhibition), 950 nM; in [10] (SF-539, concentration corresponding to 50% growth inhibition, read-out: cytotoxicity GI50, CNS SF-539), 320 nM. Moreover, the “apparent signs of toxicity at tumor growth inhibiting doses” value in data set [11] is recorded as “no apparent signs of toxicity”. Further, the “inhibition of growth of solid tumors” value in data set [11] is “inhibits their growth”. For the same molecule, in data set [11], the “inhibition of neovascularization of solid tumors” value was “potent inhibitor of neovascularization of solid tumors”. In addition, the IC50 in data set [2] is 2900 ± 600 nM.
